In data set [1] the test system is U-87 MG. Kind of data set: Cytotoxicity against human U-87 MG cells at 10 to 400 uM incubated for 24 hrs by CCK-8 assay. In kind it is functional, cell-based. As to conditions: U-87MG ATCC, dose 10-400 µM. A general note: Formazan colour is commonly taken as a measure of viable cells.
The nature of data set [2]: Biodistribution in Balb/c mouse xenografted with human U-87 MG cells by measuring ratio of boron concentration in tumor to brain at 0.04 mmol,iv administrated for 1 hr by ICP-MS analysis. In kind it is ADME, organism-based. As to conditions: in vivo.
Data set [3] is described as follows: Biodistribution in Balb/c mouse xenografted with human U-87 MG cells by measuring ratio of boron concentration in tumor to liver at 0.04 mmol,iv administrated for 1 hr by ICP-MS analysis. In kind it is ADME, organism-based. As to conditions: in vivo.
Data set [4] is described as follows: Biodistribution in Balb/c mouse xenografted with human U-87 MG cells by measuring ratio of boron concentration in tumor to kidney at 0.04 mmol,iv administrated for 1 hr by ICP-MS analysis. It is filed as ADME, organism-based. As to conditions: in vivo. On the technique in general: Xenograft models place foreign cells or tissue in a host animal.
Data set [5] can be described thus: Biodistribution in Balb/c mouse xenografted with human U-87 MG cells by measuring ratio of boron concentration in tumor to muscle at 0.04 mmol,iv administrated for 1 hr by ICP-MS analysis. In kind it is ADME, organism-based. As to conditions: in vivo.

Activity calls are given as the source filed them. The calls are words filed in the database; no cut-off is given here.

Consider 1 compound from ChEMBL document CHEMBL5344471, “64Cu-Labeled Boron-Containing Cyclic RGD Peptides for BNCT and PET Imaging” (ACS Med Chem Lett, 2024).

As for `N=C(N)NCCC[C@@H]1NC(=O)[C@H](CCCCN)NC(=O)[C@@H](Cc2ccc(B(O)O)cc2)NC(=O)[C@H](CC(=O)O)NC(=O)CNC1=O`, in data set [1], the outcome was inactive. The Ratio in data set [2] amounted to 13.4; in data set [3] it was 2.5; in data set [4], 0.43; in data set [5], 2.41.
